Laboratory results from ChEMBL document CHEMBL3885861, “Open TG-GATES”.

Organism: Rattus norvegicus
Experiment: Open TG-GATES - Regimen: Single
Format: toxicity, organism-based, Sprague-Dawley
Design: regimen Single, gender Male, age 6 weeks
Conditions: in vivo, po, route gavage; for gamma-GTP / ALP / ALT / AST / CRE / DBIL / IP / K / LDH / Na / RALB / TBIL / TC / TG / TP: tissue Plasma; for Bas / Eos / Fbg / Hb / Lym / MCH / MCHC / MCV / Mono / Neu / PT / RBC / Ret / APTT / WBC: tissue Blood; for KIDNEY_L / KIDNEY_R / KIDNEY_TOTAL: tissue Kidney

Compound: Cc1cnc(NC(=O)C2=C(O)c3ccccc3S(=O)(=O)N2C)s1 [MELOXICAM]
- gamma-GTP (0 mg/kg, 24 h, dose level Control): 1 IU/L
- TERMINAL_BW (10 mg/kg, 3 h, dose level Low): 224.9 g
- Bas (10 mg/kg, 3 h, dose level Low): 0.6%
- Eos (10 mg/kg, 3 h, dose level Low): 1%
- Fbg (10 mg/kg, 3 h, dose level Low): 239 mg/dL
- Hb (10 mg/kg, 3 h, dose level Low): 13.3 g/dL
- Lym (10 mg/kg, 3 h, dose level Low): 78%
- MCH (10 mg/kg, 3 h, dose level Low): 20.8 pg
- MCHC (10 mg/kg, 3 h, dose level Low): 33.6%
- MCV (10 mg/kg, 3 h, dose level Low): 62 fL
- Mono (10 mg/kg, 3 h, dose level Low): 2%
- Neu (10 mg/kg, 3 h, dose level Low): 18.2%
- PT (10 mg/kg, 3 h, dose level Low): 12.2 s
- RBC (10 mg/kg, 3 h, dose level Low): 638.8 x10_4/ul
- Ret (10 mg/kg, 3 h, dose level Low): 7.2%
- KIDNEY_L (10 mg/kg, 3 h, dose level Low): 1 g
- KIDNEY_R (10 mg/kg, 3 h, dose level Low): 1 g
- KIDNEY_TOTAL (10 mg/kg, 3 h, dose level Low): 2 g
- ALP (10 mg/kg, 3 h, dose level Low): 867.6 IU/L
- ALT (10 mg/kg, 3 h, dose level Low): 31.8 IU/L
- AST (10 mg/kg, 3 h, dose level Low): 65.8 IU/L
- CRE (10 mg/kg, 3 h, dose level Low): 0.3 mg/dL
- DBIL (10 mg/kg, 3 h, dose level Low): 0.06 mg/dL
- IP (10 mg/kg, 3 h, dose level Low): 9 mg/dL
- K (10 mg/kg, 3 h, dose level Low): 4 meq/L
- LDH (10 mg/kg, 3 h, dose level Low): 138 IU/L
- Na (10 mg/kg, 3 h, dose level Low): 141 meq/L
- RALB (10 mg/kg, 3 h, dose level Low): 3.3 g/dL
- TBIL (10 mg/kg, 3 h, dose level Low): 0.1 mg/dL
- TC (10 mg/kg, 3 h, dose level Low): 73.6 mg/dL
- TG (10 mg/kg, 3 h, dose level Low): 62.6 mg/dL
- TP (10 mg/kg, 3 h, dose level Low): 5.5 g/dL
- gamma-GTP (10 mg/kg, 3 h, dose level Low): 0.8 IU/L
- TERMINAL_BW (10 mg/kg, 6 h, dose level Low): 223 g
- APTT (10 mg/kg, 6 h, dose level Low): 17.8 s
- Bas (10 mg/kg, 6 h, dose level Low): 0.6%
- Eos (10 mg/kg, 6 h, dose level Low): 0.6%
- Fbg (10 mg/kg, 6 h, dose level Low): 211.6 mg/dL
- Hb (10 mg/kg, 6 h, dose level Low): 13.5 g/dL
- Lym (10 mg/kg, 6 h, dose level Low): 77.4%
- MCH (10 mg/kg, 6 h, dose level Low): 20.7 pg
- MCHC (10 mg/kg, 6 h, dose level Low): 33.6%
- MCV (10 mg/kg, 6 h, dose level Low): 61.8 fL
- Mono (10 mg/kg, 6 h, dose level Low): 2.6%
- Neu (10 mg/kg, 6 h, dose level Low): 18.6%
- RBC (10 mg/kg, 6 h, dose level Low): 648.4 x10_4/ul
- Ret (10 mg/kg, 6 h, dose level Low): 6.4%
- WBC (10 mg/kg, 6 h, dose level Low): 95.9 x10_2/uL
- KIDNEY_L (10 mg/kg, 6 h, dose level Low): 1 g
- KIDNEY_R (10 mg/kg, 6 h, dose level Low): 1 g
- KIDNEY_TOTAL (10 mg/kg, 6 h, dose level Low): 2.1 g
- ALP (10 mg/kg, 6 h, dose level Low): 957 IU/L
- ALT (10 mg/kg, 6 h, dose level Low): 37.2 IU/L
- AST (10 mg/kg, 6 h, dose level Low): 70.6 IU/L
- CRE (10 mg/kg, 6 h, dose level Low): 0.3 mg/dL
- DBIL (10 mg/kg, 6 h, dose level Low): 0.062 mg/dL
- IP (10 mg/kg, 6 h, dose level Low): 9 mg/dL
- K (10 mg/kg, 6 h, dose level Low): 3.9 meq/L
- LDH (10 mg/kg, 6 h, dose level Low): 163.8 IU/L
- Na (10 mg/kg, 6 h, dose level Low): 141 meq/L
- RALB (10 mg/kg, 6 h, dose level Low): 3.2 g/dL
- TBIL (10 mg/kg, 6 h, dose level Low): 0.1 mg/dL
- TC (10 mg/kg, 6 h, dose level Low): 66.8 mg/dL
- TG (10 mg/kg, 6 h, dose level Low): 64.4 mg/dL
- TP (10 mg/kg, 6 h, dose level Low): 5.2 g/dL
- gamma-GTP (10 mg/kg, 6 h, dose level Low): 1 IU/L
- TERMINAL_BW (10 mg/kg, 9 h, dose level Low): 220.5 g
- APTT (10 mg/kg, 9 h, dose level Low): 17.8 s
- Bas (10 mg/kg, 9 h, dose level Low): 0%
- Eos (10 mg/kg, 9 h, dose level Low): 0.8%
- Fbg (10 mg/kg, 9 h, dose level Low): 216.6 mg/dL
- Hb (10 mg/kg, 9 h, dose level Low): 13.4 g/dL
- Lym (10 mg/kg, 9 h, dose level Low): 77.8%
- MCH (10 mg/kg, 9 h, dose level Low): 21 pg
- MCHC (10 mg/kg, 9 h, dose level Low): 34%
- MCV (10 mg/kg, 9 h, dose level Low): 62.1 fL
- Mono (10 mg/kg, 9 h, dose level Low): 2.8%
- Neu (10 mg/kg, 9 h, dose level Low): 17.8%
- RBC (10 mg/kg, 9 h, dose level Low): 637.8 x10_4/ul
- Ret (10 mg/kg, 9 h, dose level Low): 6.7%
- KIDNEY_L (10 mg/kg, 9 h, dose level Low): 1 g
- KIDNEY_R (10 mg/kg, 9 h, dose level Low): 1 g
- KIDNEY_TOTAL (10 mg/kg, 9 h, dose level Low): 2.1 g
- ALP (10 mg/kg, 9 h, dose level Low): 759.6 IU/L
- ALT (10 mg/kg, 9 h, dose level Low): 35 IU/L
- AST (10 mg/kg, 9 h, dose level Low): 66 IU/L
- CRE (10 mg/kg, 9 h, dose level Low): 0.4 mg/dL
- DBIL (10 mg/kg, 9 h, dose level Low): 0.06 mg/dL
- IP (10 mg/kg, 9 h, dose level Low): 9.5 mg/dL
- K (10 mg/kg, 9 h, dose level Low): 3.9 meq/L
- LDH (10 mg/kg, 9 h, dose level Low): 176.6 IU/L
- Na (10 mg/kg, 9 h, dose level Low): 141.8 meq/L
- RALB (10 mg/kg, 9 h, dose level Low): 3.4 g/dL
- TBIL (10 mg/kg, 9 h, dose level Low): 0.1 mg/dL
- TC (10 mg/kg, 9 h, dose level Low): 69.4 mg/dL
- TG (10 mg/kg, 9 h, dose level Low): 41.6 mg/dL
- TP (10 mg/kg, 9 h, dose level Low): 5.3 g/dL
- gamma-GTP (10 mg/kg, 9 h, dose level Low): 1 IU/L
- TERMINAL_BW (10 mg/kg, 24 h, dose level Low): 237.5 g
- Bas (10 mg/kg, 24 h, dose level Low): 0.2%
- Eos (10 mg/kg, 24 h, dose level Low): 0.8%
- Fbg (10 mg/kg, 24 h, dose level Low): 214 mg/dL
- Hb (10 mg/kg, 24 h, dose level Low): 13.1 g/dL
- Lym (10 mg/kg, 24 h, dose level Low): 74.4%
- MCH (10 mg/kg, 24 h, dose level Low): 21.8 pg
- MCHC (10 mg/kg, 24 h, dose level Low): 33.9%
- MCV (10 mg/kg, 24 h, dose level Low): 64.2 fL
- Mono (10 mg/kg, 24 h, dose level Low): 3.2%
- Neu (10 mg/kg, 24 h, dose level Low): 20.8%
- PT (10 mg/kg, 24 h, dose level Low): 11.8 s
- RBC (10 mg/kg, 24 h, dose level Low): 601.4 x10_4/ul
- Ret (10 mg/kg, 24 h, dose level Low): 7%
- WBC (10 mg/kg, 24 h, dose level Low): 133.5 x10_2/uL
- KIDNEY_L (10 mg/kg, 24 h, dose level Low): 1.1 g
- KIDNEY_R (10 mg/kg, 24 h, dose level Low): 1.1 g
- KIDNEY_TOTAL (10 mg/kg, 24 h, dose level Low): 2.2 g
- ALP (10 mg/kg, 24 h, dose level Low): 959.4 IU/L
- ALT (10 mg/kg, 24 h, dose level Low): 36.8 IU/L
- AST (10 mg/kg, 24 h, dose level Low): 70 IU/L
- CRE (10 mg/kg, 24 h, dose level Low): 0.4 mg/dL
- DBIL (10 mg/kg, 24 h, dose level Low): 0.082 mg/dL
- IP (10 mg/kg, 24 h, dose level Low): 7.9 mg/dL
- K (10 mg/kg, 24 h, dose level Low): 4.2 meq/L
- LDH (10 mg/kg, 24 h, dose level Low): 177.8 IU/L
- Na (10 mg/kg, 24 h, dose level Low): 141 meq/L
- RALB (10 mg/kg, 24 h, dose level Low): 3.2 g/dL
- TBIL (10 mg/kg, 24 h, dose level Low): 0.1 mg/dL
- TC (10 mg/kg, 24 h, dose level Low): 72 mg/dL
- TG (10 mg/kg, 24 h, dose level Low): 84.4 mg/dL
